Results from patent US12310967B2, “Compositions and methods of treatment for neurological disorders comprising motor neuron diseases” (Gliapharm SA, priority 2017, dated 2025).
Where a name gives a salt, the structure may show the parent alone.

Assays:
primary astrocytes [1] = assay: Extracellular lactate quantification; type: cell-based, mouse; conditions: for Score_LACTATE: Appendix I, secondary screening: extracellular lactate
Outline: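 Astrocytes were stimulated 90 min at 37 °C in D5030 medium with 5 mM glucose and 44 mM bicarbonate, with compound at 0-100 μM. Extracellular lactate was measured enzymatically with LDH/NAD in glycine-semicarbazide buffer, pH 10, for 1 h at 37 °C. NADH fluorescence (340/450 nm) was converted to lactate using an L-lactate standard curve.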

primary astrocytes [2] = assay: High throughput screening (HTS) for lactate secretion: acidification of extracellular medium (SNARF5); type: cell-based, mouse; set-up: key to Score / HTS Score (SNARF5) / Score_SNARF: fraction of plate positive-control activity (1 = 100%); conditions: for Score_SNARF: Appendix I, primary screening confirmation (SNARF5)
Description: Primary cultures of cerebrocortical astrocytes were obtained from 1-2-day-old OF1 mouse pups (Charles River Laboratories). Briefly, cortices were isolated and minced in small pieces under a dissecting microscope. The cells were incubated for 30 min at 37° C. in a solution containing 20 U/ml of papain enzyme (Worthington Biochemical), L-cysteine 1 mM (Sigma), and 10 kU/ml DNase I (Worthington Biochemical) for an enzymatic dissociation. Papain activity was stopped by the addition of fetal calf serum (FCS) to the solution, and a single-cell suspension was then obtained by mechanical dissociation, which consisted in cells trituration in a DMEM (D7777, Sigma-Aldrich) medium (supplemented with 44 mm NaHCO3, and 10 ml/L antibiotic/antimycotic solution) containing 10% FCS. The cells were seeded at an average density of 6×10^4 cells/cm^2 in poly-D-lysine-coated 96, 12 or 6-well culture plates, depending on their use, and incubated at 37° C. in a humidified atmosphere containing 5% CO2/95% air. Culture medium was renewed twice per week. Cells were stimulated and harvested between DIV14 and DIV17, when confluence and cell growth were optimal.
Secretion of lactate in a high-throughput screening (HTS) fashion was measured indirectly through the acidification of extracellular medium. To this end, primary astrocytes grown in 96-well plates for 17 days were stimulated with the compounds as listed herein.
After washing the cells twice with stimulation medium (DMEM (D5030, Sigma), 3 mM NaHCO3 and 5 mM Glucose) at 37° C., cells were stimulated with the compounds at a final concentration of 10 uM (1% DMSO final) in 50 ul per well of stimulation medium supplemented with 10 uM of the extracellular pH sensor SNARF-5F %-(AND-6)-CAR (Life Technologies Corporation). Each compound was tested in two different plates for duplicates.
After 90 min stimulation, fluorescence was read at exc. (excitation) 480 nm/emm. (emission) 580 nm and at exc 480 nm/emm. 630 nm. The ratio of fluorescence between 630 nm and 580 emission values, which represents extracellular pH, was calculated.
In each plate, 8 wells were used for negative controls (DMSO) and 8 wells were used for positive controls (CCCP 2 uM in DMSO). Z prime values were calculated for each of the plates tested and values<0 were discarded.
The average and SD of compounds' values tested in duplicates were calculated, and compound was noted as HIT when the difference between compound's average and negative control's average was greater than three times the sum of compound's SD and negative controls' SD. Only scores greater than 40% were considered as lead Hits for the CDC54K library; for the remaining libraries, all hits were considered. Scores are calculated as the % of activity compared to the positive control in each plate (which is 100%).
Primary screening hits were cherry picked on new plates and confirmed for SNARF5 effect, after having discarded those compounds that are fluorescent (exc. 480 nm/emm. 580 nm or 630 nm) before stimulation. Extracellular medium was next analyzed for extracellular lactate quantification for secondary screening.
Identification of lactate-enhancing drugs with high throughput screening (HTS) experiments on astrocytes primary cultures using extracellular pH dye (SNARF5F 5-(and-6)-carboxylic acid) for 90 min. The procedure is described in Material and Methods (2. Cell culture, 2.1. HTS for lactate secretion and 2.2. Extracellular lactate quantification).
The procedure was performed as follows: • Primary screening: acidification of the extracellular medium • Primary screening confirmation: acidification of the extracellular medium, removal of compounds with fluorescent activity at exc. 480 nm/emm. 580 nm or 630 n. • Secondary screening: dosage of extracellular lactate

primary astrocytes [3] = assay: MTT viability assay; type: cell-based; conditions: Mus musculus, Astrocyte, 0-200 uM, 24 h
Description: For cell toxicity determination, astrocytes in 96-well plates were stimulated 24 h (37° C. 5% CO2/95% air) with a gradient ranging from 0.1 to 200 μM of tested compounds. After stimulation, 5 mg/ml thiazol blue tetrazolium bromide (MTT, Sigma-Aldrich) in warm D5030 complete medium was added to each well, and cells were incubated for 4 h at 37° C. (5% CO2). The medium was then removed by aspiration, and the reaction was stopped by the addition of 50 μl DMSO per well.
The amount of reduced MTT (formazan) solubilized in DMSO was then determined spectrophotometrically using absorbance at 570 nm (Safire 2; Tecan).
MTT cellular viability assay was performed on astrocytes exposed to Preswtick Hits (concentrations ranging from 0 uM to 200 uM).
MTT cellular viability assay was performed on astrocytes exposed to CDC54K Hits (concentrations ranging from 0 uM to 200 uM).

primary astrocytes [4] = assay: Intracellular glycogen quantification; type: cell-based, mouse; conditions: 10 μM, 3 h
Description: For glycogen dosage, a protein dosage was first performed in order to assess whether harvested astrocytes from primary cell cultures yielded enough and equivalent amounts of proteins comparing each replicate, and to ensure that the obtained differences in glycogen quantities were due to drug action and not to inner protein quantities.
Astrocytes used for these dosages were previously grown in 6-well plates for 17 days and stimulated with Vehicle (DMSO) or drug of interest (1 μM to 100 μM) for 180 min, at 37° C. 5% CO2/95% air in D5030 complete medium. Medium was removed and replaced with 600 μl of 30 mM Tris HCl, and stored at −20° C.
Proteins were dosed using the micro BCA Protein Assay kit (Thermo Scientific), as described in the manufacturer's instructions. Briefly, thawed cells were sonicated and 5 μl aliquots were placed in a transparent 96-well plate, to which we added 25 μl 30 mM Tris HCl, 70 μl H2O and 100 μl of a BCA mix (made as described in manufacturer's guidelines). After a 120 min-incubation at 37° C., absorbance was measured with Safire 2 spectrophotometer at a wavelength of 562 nm, and protein quantities were determined from a standard curve of Bovine Serum Albumin (BSA).
Glycogen was quantified using a 250 μl-aliquot of the same stimulated, thawed, and sonicated cells. After an incubation period of 30 min at 90° C. and 400 rpm, 28 μl of an acetic acid/sodium acetate (both from Sigma) 0.1M pH 4.6 buffer was added to each aliquot, which was then separated in two. Each split aliquot received whether 5 μl of amyloglucosidase (Roche) or 5 μl H2O, and all cell solutions were incubated for 120 min in a shaking 37° C.-waterbath. After a centrifugation at 16'000G for 5 min, 20 μl of supernatant were placed 96-well plate, to which 150 μl of a mix containing 0.67 mM ATP (Roche), 0.67 mM NADP (Roche), 1.8% hexokinase/glucose-6-phosphate dehydrogenase (Roche) and 0.1M Tris Buffer-HCl/3.3 mM magnesium (Fluka)/pH 8.1 buffer was added. Fluorescence was measured with Safire 2 spectrophotometer (340 nm excitation/440 nm emission). Glycogen concentration was obtained by substracting glucose value of samples with amyloglucosidase to samples without amyloglucosidase, and were expressed relative to the amount of proteins previously determined.
Levels of intracellular glycogen in astrocytes were measured at 3 h after stimulation with 20 Hits from the Prestwick library (10 μM each), as shown in FIG. 2. n=6-10; Ctrl pos. is glutamate (0.5 mM). Statistical analysis consisted in ANOVA followed by Fisher LSD post-hoc test for pair-wise comparisons.
Statistical analysis consisted in ANOVA followed by Fisher LSD post-hoc test for pair-wise comparisons.

primary astrocytes [5] = assay: Intracellular glycogen quantification, Example 2; type: cell-based, mouse; conditions: 10 μM, 3 h
Description: Astrocytes grown on 12-well plates were used for intracellular glycogen quantifications. Cells were stimulated with Vehicle (DMSO), with compounds of the invention (10 μM), or with a positive control for 180 min, at 37° C. 5% CO2/95% air in D5030 medium complemented with
5 mM D-glucose and 44 mM sodium bicarbonate (pH 7.2). […] At the end of the stimulation, medium was removed and replaced with 600 μl of 30 mM Tris HCl, and stored at −20° C.
First, the amount of proteins in each sample was quantified to assess whether harvested astrocytes from primary cell cultures yielded enough and equivalent amounts of proteins on each replicates. Proteins were quantified using the micro BCA Protein Assay kit (Thermo Scientific), according to manufacturer's instructions. Next, intracellular glycogen concentrations were quantified using a 250 μl-aliquot of the same stimulated, thawed, and sonicated cell lysate. After an incubation period of 30 min at 90° C. and 400 rpm, 28 μl of a 0.1M acetic acid/sodium acetate buffer (pH 4.6) was added to each lysate aliquots, which were then separated in two. Each split aliquots received either 5 μl of amyloglucosidase or H2O, and incubated for 120 min at 37° C. After centrifugation at 16'000G for 5 min, 20 μl of supernatant were placed in a 96-well plate, to which 150 μl of a mix containing 0.67 mM ATP, 0.67 mM NADP, 1.8% hexokinase/glucose-6-phosphate dehydrogenase in a 0.1M Tris Buffer-HCl/3.3 mM magnesium (pH 8.1) buffer was added. Fluorescence intensity (340 nm excitation/440 nm emission) was measured using a Safire 2 spectrophotometer. Glucose concentrations were assessed relative to a glucose standard curve, and glycogen concentrations were calculated by subtracting glucose values of samples that had received amyloglucosidase (i.e. that had degraded their glycogen stores) to samples that had not. Intracellular levels of glycogen, which is the main source of glucose storage in the brain, were analyzed in primary astrocytes after treatment with compounds of interest (10 μM, 3 h) (FIG. 5B), and compound GP-0157 (0.1, 1, 10 μM, 3 h) (FIG. 20).

SMILES	Score_LACTATE (primary astrocytes [1])	Score_SNARF (primary astrocytes [2])	further results
CC(=O)c1cccc(NC(=O)C(C)Sc2ncnc3ccccc23)c1 (stereo not shown) [T0511-9200]	0.7518	0.4866	IC50 (primary astrocytes [3]; CDC54K hits): > 200 µM; Glycogen (statistical significance of glycogen degradation) (primary astrocytes [4]; CDC54K hits): ns
C#C[C@]1(O)CC[C@H]2[C@@H]3[C@H](C)CC4=C(CCC(=O)C4)[C@H]3CC[C@@]21C [Tibolone]			EC50 (primary astrocytes [1]; Mus musculus, Astrocyte, 1.5 h, Prestwick hits, 0-100 μM, 90 min, read-out: Lactate EC50): 2.23 µM; Score (primary astrocytes [2]; Prestwick library, 10 uM, 90 min, activity relative to positive control CCCP 2 uM): 0.2268; HTS Score (lactate) (primary astrocytes [2]; Prestwick library, 10 uM, 90 min, relative to positive control CCCP 2 uM): 0.227; IC50 (primary astrocytes [3]; Prestwick hits): 60.7 µM
O=C(COc1ccc(Cl)cc1)N1CCN(Cc2ccc3c(c2)OCO3)CC1 [Fipexide hydrochloride]			Glycogen (statistical significance of glycogen degradation) (primary astrocytes [4]; Prestwick hits): ns
COc1cccc(CNS(=O)(=O)c2ccc3c(c2)CCCN3C(C)=O)c1 [T5967389]	0.4517	0.2789	Score Lact. (primary astrocytes [1]; Appendix II, CDC54K library): 0.45; IC50 (primary astrocytes [3]; CDC54K hits): > 200 µM
COc1ccccc1[N+]1=C2CCCCCN2C(O)(c2ccc(C)cc2)C1 (stereo not shown) [K404-0834]	1.613	1.022	mobilization of intracellular glycogen (primary astrocytes [5]): significantly enhance
Fc1ccc(-c2cc3n(n2)CCCN(Cc2ccncc2)C3)cc1 [T202-1455]	0.6933	0.7839	IC50 (primary astrocytes [3]; CDC54K hits): > 200 µM; Glycogen (statistical significance of glycogen degradation) (primary astrocytes [4]; CDC54K hits): ns
O=S(=O)(Nc1cc(F)cc(F)c1)c1ccc2ccccc2c1 [T5884038]	0.9262	0.8379	mobilization of intracellular glycogen (primary astrocytes [5]): significantly enhance
O=S(=O)(Nc1ccc2[nH]ncc2c1)c1ccc(C(F)(F)F)cc1 [T5653029]	1.354	0.5642	
Cc1cccc([N+]2=C3SCCCN3C(O)(c3ccc(F)cc3)C2)c1 (stereo not shown) [K404-0394]	0.4429	0.3309	
O=c1n(CCCN2CCN(c3cccc(Cl)c3)CC2)nc2ccccn12 [Trazodone hydrochloride]			Glycogen (statistical significance of glycogen degradation) (primary astrocytes [4]; Prestwick hits): ns
Cc1nc(N2CCCC(C(=O)NCc3cccnc3)C2)c2c(C)c(C)oc2n1 (stereo not shown) [F228-0856]	0	0	
CCNC(=O)C1CCCN(c2ncnc3oc(C)c(C)c23)C1 (stereo not shown) [F228-0534]	0.3387	0.5203	
c1ccc2c(c1)CN(c1ncnc3sccc13)CCN2 [T6768300]	0	0.3742	
Cn1nccc1-c1csc(S(=O)(=O)Nc2ccc(F)cc2)c1 [L924-0760]	0.7898	0.7695	
Cc1cccc([N+]2=C3SCCCN3C(O)(c3ccc(Cl)cc3)C2)c1.[Br-] (stereo not shown) [F0522-0533]	0	0.4705	
COc1ccccc1NC(=O)Cc1nn(C)c(=O)c2ccccc12 [K851-0113]	0.9281	0.7569	IC50 (primary astrocytes [3]; CDC54K hits): > 200 µM; Glycogen (statistical significance of glycogen degradation) (primary astrocytes [4]; CDC54K hits): ns
COc1ccc(C2(O)C[N+](c3ccccc3C)=C3CCCCN32)cc1.[Br-] (stereo not shown) [F0524-0507]	0	0.4491	
COc1ccc(CN2CCN(c3ncnc4c3CCC4)CC2)cc1OC [T636-2007]	0.9841	0.8596	
